Source: patent publication US20240082260A1, “INHIBITOR OF PROTEIN KINASE D FOR USE IN PREVENTION OR TREATMENT OF HYPERLIPIDEMIA” (priority 2021, published 2024)

What was measured:
LDLR-/- mice = assay: Atheroma formation in high cholesterol diet-fed LDLR-/- mice; type: in vivo, mouse; details: oral 10 mg/kg a day, 7th to 17th week of high cholesterol diet, vs solvent
Text: To assess the impact of PKD2 on cholesterol levels as well as on atheroma formation, we utilized a mouse genetic model of atheroma formation and mice carrying inactivatory mutation in the sequence encoding PKD2 (Matthews et al, 2010). Mice deficient for Low-density lipoprotein receptor (LDLR), develop hyperlipidemia (elevated levels of cholesterol) and deposit a significant amount of atherosclerotic plaques in the vessels especially when fed with a high cholesterol diet (containing 1.25% of the cholesterol in the food) (Ishibashi et al, 1993). We crossed mice deficient for LDLR (LDLR−/−) and mice carrying inactivatory mutation of PKD2 (PKD^ki/ki) to generate double mutant mice (LDLR−/− PKD^ki/ki) and corresponding control animals, LDLR−/−. These animals were fed for 18 weeks with high cholesterol diet. […] The relative plaque area was also quantified.
To test if inhibition of PKD by CRT0066101 compound is also sufficient to reduce atherosclerotic plaque formation, we also utilized high cholesterol diet-fed LDLR−/− mice as a model. […] After the 17th week of the experiment, mice were sacrificed and lipid levels in the blood, as well as the amount of atherosclerotic plaques, were assessed as described for the genetic model above.

PKD2 = biological target: T1, PKD2 (Homo sapiens, UniProt Q9BZL6); assay: In-vitro kinase assay: PKD2 phosphorylation of APOA4; type: biochemical; details: recombinant human PKD2 and APOA4, western blot, FIG. 5H
T1 construct: purchased Abcam ab60875
T1 sequence (Q9BZL6 1-878): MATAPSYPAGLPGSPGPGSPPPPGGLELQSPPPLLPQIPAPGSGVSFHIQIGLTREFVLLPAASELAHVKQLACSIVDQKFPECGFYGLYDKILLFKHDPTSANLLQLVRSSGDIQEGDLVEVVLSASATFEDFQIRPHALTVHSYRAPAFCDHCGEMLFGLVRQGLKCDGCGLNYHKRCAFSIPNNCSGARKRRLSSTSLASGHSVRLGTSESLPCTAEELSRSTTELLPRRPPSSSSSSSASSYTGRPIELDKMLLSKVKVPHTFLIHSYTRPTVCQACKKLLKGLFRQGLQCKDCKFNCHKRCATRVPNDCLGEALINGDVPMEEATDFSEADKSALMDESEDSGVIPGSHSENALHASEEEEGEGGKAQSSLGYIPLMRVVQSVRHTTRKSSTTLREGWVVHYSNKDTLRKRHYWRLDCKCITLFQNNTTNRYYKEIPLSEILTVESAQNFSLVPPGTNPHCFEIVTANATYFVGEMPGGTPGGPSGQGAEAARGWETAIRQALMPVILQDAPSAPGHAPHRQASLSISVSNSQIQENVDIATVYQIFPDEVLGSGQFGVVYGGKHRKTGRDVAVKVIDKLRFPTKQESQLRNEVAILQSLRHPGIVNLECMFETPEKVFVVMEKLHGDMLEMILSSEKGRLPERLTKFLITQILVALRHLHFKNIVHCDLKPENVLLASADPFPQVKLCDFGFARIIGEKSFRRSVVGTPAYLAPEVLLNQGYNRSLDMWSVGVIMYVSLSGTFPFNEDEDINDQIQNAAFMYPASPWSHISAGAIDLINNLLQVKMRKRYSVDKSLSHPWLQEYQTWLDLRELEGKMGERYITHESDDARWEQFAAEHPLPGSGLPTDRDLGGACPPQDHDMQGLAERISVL
Procedure: Recombinant human proteins used for the study, PKD2 and APOA4, were both purchased from Abcam. […] Then, western blot was performed and incubated with a primary antibody against the phosphorylated motif (RxxS/T*) (Cell Signaling).

[1] = system: Caco2 cells deficient in PKD2; assay: 14C-fatty acid basolateral release in Caco2 cells expressing shPkd2 in transwell system; type: cell-based, human; details: 24 h, FIG. 6B
Procedure: Caco2 cells were cultured in Dulbecco's modified eagle's medium 4.5 g/L glucose (DMEM), 10% fetal bovine serum (FBS), non-essential amino acids (NEAA), 1 mM sodium pyruvate, and 40 μg/mL gentamycin. For the generation of shRNA cell lines, Pkd2 shRNA lentiviral sequences or scramble (non-targeting) were first cloned into the pLKO.1-puro vector then packed into viral particles in packaging cells (HEK293T) using 3rd generation packaging vectors. Caco2 cells were spinfected with viral supernatant then selected with puromycin and the deletion efficiency was further assessed by western blot.
Lipid transport studies were assessed in Caco2 cells seeded in trans-wells. 1.5×10^5 cells were seeded into a 12-well cell culture insert of 1 μm pore size Trans-well and maintained in for 14 consecutive days with media change every two days. For the lipids uptake and release, the apical side of the membrane was loaded with radioactive ^14C-palmitic acid (0.2 μCi), oleic acid (1 mM), and taurocholic acid (2 mM) in DMEM high glucose 10% FBS. The basal medium contained DMEM high glucose 0.1% FBS. After 24 hours of incubation, cell lysates and the apical and basolateral medium was collected and the ^14C-palmitic acid was measured in a scintillation counter for aliquots of apical and basal medium and for cell lysate. […]

SMILES: CC[C@@H](N)CNc1ccnc(-c2cc(-c3cnn(C)c3)ccc2O)n1 [CRT0066101]
- blood cholesterol levels (LDLR-/- mice; FIG. 10A): reduction in cholesterol levels
- size of atherosclerotic plaques (relative area in aorta, OilRedO) (LDLR-/- mice; FIG. 10B-C): smaller size of atherosclerotic plaques
- PKD2-dependent phosphorylation of APOA4 (PKD2): abrogates PKD2-dependent phosphorylation
- TG secretion (basolateral release of 14C-labeled fatty acids) [1]: did not reduce TG secretion
